Measurements from the supplement of paper PMC10307832.

Assays:
Experiment in all cases: relative viability (nuclei count vs DMSO), 5 days (fraction); higher = more cells survive
Tosedostat + OSI-027 = compound: CC(C)C[C@@H](C(=O)N[C@H](C(=O)OC1CCCC1)c1ccccc1)[C@H](O)C(=O)NO [Tosedostat] + COc1cccc2cc(-c3nc([C@H]4CC[C@H](C(=O)O)CC4)n4ncnc(N)c34)[nH]c12 [OSI-027] (partner 0.5 µM)
Method in brief: (§1)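 One day after seeding in 1536-well plates, lung cancer cell lines were dosed by pin tool. Dosing was either single-drug or a fixed anchor-drug dose plus five library-drug doses (not always all listed) in √10 steps. After 5 days, nuclei were stained in one fix-and-stain step and counted on 4× images, and relative viability is the nuclei count of treated wells over that of vehicle wells, given as the median of duplicate plates.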

[1] = compound: CC1=NN=C(O1)C2=NN=C(C=C2)N3CCC(CC3)OC4=C(C=CC(=C4)F)Cl + Cc1nc(Nc2ncc(C(=O)Nc3c(C)cccc3Cl)s2)cc(N2CCN(CCO)CC2)n1 [Dasatinib] (partner 0.075 µM)
Method in brief: as §1

Tosedostat + Pictilisib = compound: CC(C)C[C@@H](C(=O)N[C@H](C(=O)OC1CCCC1)c1ccccc1)[C@H](O)C(=O)NO [Tosedostat] + CS(=O)(=O)N1CCN(Cc2cc3nc(-c4cccc5[nH]ncc45)nc(N4CCOCC4)c3s2)CC1 [Pictilisib] (partner 1 µM)
Method in brief: as §1

[2] = compound: CC1=NN=C(O1)C2=NN=C(C=C2)N3CCC(CC3)OC4=C(C=CC(=C4)F)Cl + CS(=O)(=O)CCNCc1ccc(-c2ccc3ncnc(Nc4ccc(OCc5cccc(F)c5)c(Cl)c4)c3c2)o1 [Lapatinib] (partner 2 µM)
Method in brief: as §1

Cell Line	relative viability (Tosedostat + OSI-027; first compound 0.02 µM)	relative viability (Tosedostat + OSI-027; first compound 0.06325 µM)	relative viability (Tosedostat + OSI-027; first compound 0.2 µM)	relative viability (Tosedostat + OSI-027; first compound 0.6325 µM)	relative viability (Tosedostat + OSI-027; first compound 2 µM)	relative viability ([1]; first compound 0.253 µM)	relative viability ([1]; first compound 0.8 µM)	relative viability ([1]; first compound 2.53 µM)	relative viability ([1]; first compound 8 µM)	relative viability (Tosedostat + Pictilisib; first compound 0.02 µM)	relative viability (Tosedostat + Pictilisib; first compound 0.06325 µM)	relative viability (Tosedostat + Pictilisib; first compound 0.2 µM)	relative viability (Tosedostat + Pictilisib; first compound 0.6325 µM)	relative viability (Tosedostat + Pictilisib; first compound 2 µM)	relative viability ([2]; first compound 0.253 µM)	relative viability ([2]; first compound 0.8 µM)	relative viability ([2]; first compound 2.53 µM)	relative viability ([2]; first compound 8 µM)
NCI-H522	0.842	0.82	0.819	0.916	0.79	0.856	0.842	0.974	0.938	–	–	–	–	–	–	–	–	–
HCC-15	0.751	0.718	0.579	0.467	0.46	0.497	0.453	0.499	0.472	0.777	0.731	0.638	0.572	0.501	0.418	0.408	0.415	0.414
A-427	0.437	0.548	0.534	0.484	0.406	0.654	–	0.669	0.63	0.736	0.643	0.727	0.662	0.564	0.818	–	0.825	0.54
NCI-H3122	1.15	0.985	1.01	0.963	0.588	0.283	0.313	0.28	0.23	0.663	0.659	0.615	0.692	0.704	0.519	0.675	0.52	0.449
NCI-H1915	0.659	0.614	0.643	0.585	0.532	0.324	0.257	0.311	0.285	1.24	0.955	1	0.815	0.838	0.431	0.334	0.401	0.322
NCI-H1355	0.377	0.399	0.442	0.413	0.351	0.314	0.526	0.781	0.585	0.449	0.441	0.352	0.329	0.354	–	–	0.869	0.78
NCI-H2023	0.431	0.383	0.328	0.251	0.231	0.429	0.442	0.476	0.402	0.247	0.233	0.251	0.139	0.198	0.441	0.407	0.409	0.435
NCI-H1755	0.743	0.731	0.642	0.674	0.463	0.36	0.438	0.406	0.373	0.461	0.489	0.38	0.376	0.276	0.59	0.708	0.665	0.592
HCC-366	1.15	0.806	1.01	0.643	0.594	0.292	0.375	0.471	0.361	0.167	0.154	0.0818	0.151	0.103	0.384	0.41	0.393	0.406
SK-MES-1	0.532	0.59	0.595	0.538	0.396	0.359	0.384	0.419	0.42	0.382	0.317	0.381	0.315	0.311	0.452	0.528	0.445	0.518
NCI-H596	0.826	0.924	0.909	0.564	0.629	0.558	0.602	0.647	0.506	0.424	0.471	0.385	0.446	0.388	–	0.845	0.932	0.888
RERF-LC-KJ	0.588	0.586	0.486	0.452	0.418	0.553	0.559	0.619	0.581	0.463	0.647	0.45	0.471	0.433	0.623	0.545	0.584	0.57
LOU-NH91	0.735	0.822	0.703	0.676	0.616	0.473	0.517	0.512	0.509	0.594	0.53	0.568	0.495	0.501	–	0.7	0.717	0.687
NCI-H1623	0.433	0.429	0.456	0.462	0.453	0.522	0.492	0.498	0.441	–	–	–	–	–	–	–	–	–
Calu-6	–	–	–	–	–	–	–	–	–	0.975	0.87	0.778	0.757	0.651	0.65	0.604	0.636	0.557
LC-2-ad	1.03	0.756	0.758	0.698	0.645	0.4	0.389	0.48	0.505	0.269	0.429	0.661	0.458	0.455	0.291	0.271	0.335	0.262
CAL-12T	0.9	0.769	0.76	0.572	0.457	0.315	0.34	0.374	0.228	0.471	0.417	0.422	0.484	0.423	0.59	0.565	0.579	0.425
NCI-H1650	0.606	0.633	0.662	0.639	0.706	–	0.342	0.335	0.28	0.696	0.599	0.652	0.645	0.558	–	0.71	0.691	0.566

Cell Line	relative viability (Tosedostat + OSI-027; first compound 0.02 µM)	relative viability (Tosedostat + OSI-027; first compound 0.06325 µM)	relative viability (Tosedostat + OSI-027; first compound 0.2 µM)	relative viability (Tosedostat + OSI-027; first compound 0.6325 µM)	relative viability (Tosedostat + OSI-027; first compound 2 µM)	relative viability ([1]; first compound 0.253 µM)	relative viability ([1]; first compound 0.8 µM)	relative viability ([1]; first compound 2.53 µM)	relative viability ([1]; first compound 8 µM)	relative viability (Tosedostat + Pictilisib; first compound 0.02 µM)	relative viability (Tosedostat + Pictilisib; first compound 0.06325 µM)	relative viability (Tosedostat + Pictilisib; first compound 0.2 µM)	relative viability (Tosedostat + Pictilisib; first compound 0.6325 µM)	relative viability (Tosedostat + Pictilisib; first compound 2 µM)	relative viability ([2]; first compound 0.253 µM)	relative viability ([2]; first compound 0.8 µM)	relative viability ([2]; first compound 2.53 µM)	relative viability ([2]; first compound 8 µM)
NCI-H1703	–	–	–	–	–	–	–	–	–	0.229	0.253	0.268	0.222	0.245	1.06	0.795	0.904	0.76
BEN	0.298	0.292	0.286	0.31	0.326	0.375	0.508	0.321	0.24	0.679	0.622	0.556	0.752	0.804	0.607	0.729	0.743	0.61
EMC-BAC-2	0.4	0.405	0.412	0.416	0.319	0.319	0.324	0.362	0.422	0.614	0.544	0.504	0.544	0.526	0.837	0.843	0.854	0.647
LXF-289	0.904	0.799	0.808	0.692	0.561	0.209	0.234	0.195	0.227	0.818	0.766	0.752	0.784	0.676	0.643	0.672	0.696	0.584
ABC-1	0.588	0.546	0.423	0.391	0.406	0.457	0.32	0.318	0.361	1	0.622	0.616	0.722	0.535	1.13	1.07	0.92	0.887
NCI-H2170	0.749	0.738	0.736	0.773	0.571	0.351	0.332	0.374	0.316	0.31	0.33	0.385	0.291	0.289	0.268	0.241	0.291	0.26
NCI-H1437	0.977	0.969	0.846	0.828	0.805	0.584	0.279	0.418	0.268	0.407	0.448	0.277	0.232	0.256	0.434	0.486	0.545	0.453
EBC-1	–	–	–	–	–	–	–	–	–	0.361	0.417	0.232	0.266	0.281	0.208	0.191	0.182	0.197
NCI-H441	0.609	0.593	0.632	0.433	0.437	0.566	0.492	0.664	0.493	0.549	0.443	0.461	0.379	0.328	–	–	–	–
NCI-H2342	0.627	0.708	0.632	0.576	0.599	0.286	0.293	0.325	0.274	–	–	–	–	–	–	–	–	–
ChaGo-K-1	0.54	0.525	0.577	0.617	0.498	0.604	0.531	0.654	0.352	1.1	0.813	0.754	0.812	0.638	–	–	–	–
HCC-44	0.538	0.592	0.384	0.513	0.374	–	–	–	–	0.666	0.689	0.527	0.695	0.378	0.324	0.439	0.383	0.43
A549	–	–	–	–	–	–	–	–	–	0.606	0.513	0.495	0.469	0.521	0.523	0.365	0.4	0.425
NCI-H1299	–	–	–	–	–	–	–	–	–	0.813	0.77	0.646	0.485	0.316	0.737	0.718	0.752	0.687
SW 900	0.619	0.505	0.544	0.476	0.322	–	–	0.642	0.542	–	–	–	–	–	–	–	–	–
IA-LM	–	–	–	–	–	–	–	–	–	0.447	0.308	0.36	0.302	0.403	0.283	0.241	0.257	0.275
LCLC-103H	0.553	0.417	0.491	0.502	0.472	0.401	0.392	0.449	0.427	0.733	0.567	0.666	0.714	0.54	–	–	–	–
NCI-H1648	0.28	0.268	0.262	0.242	0.267	–	–	–	–	–	–	–	–	–	–	–	–	–
